# Experimental data: PubChem BioAssay AID1745844 (Carcinogenic Potency Database (CPDB), 2022)
# Values joined by “and” are separate entries in the source; they are usually repeats but may differ in a detail not shown here. Identical values can stand only once. Active and inactive are the calls of the source. The rule behind the calls is not given here.
# System: rodent lifetime carcinogenesis bioassay, tumor incidence TD50
# Assay: chronic cancer bioassays in animals – CPDB, compiled studies (AID 1745844)
smiles,measurement,setting,value
[Ge+4].[Na+].[Na+].[O-2].[O-2].[O-2],carcinogen call,"mouse, strain Charles River CD1, both sexes, in drinking water, site: any site (literature study), lesion: benign tumor, dosed 104 weeks, study length 104 weeks",negative (inactive)
same,carcinogen call,"mouse, strain Charles River CD1, both sexes, in drinking water, site: any site (literature study), lesion: malignant tumor, dosed 104 weeks, study length 104 weeks",negative (inactive)
same,carcinogen call,"mouse, strain Charles River CD1, both sexes, in drinking water, site: any site (literature study), lesion: several types, types named in the paper, dosed 104 weeks, study length 104 weeks",negative (inactive)
same,carcinogen call,"mouse, strain Charles River CD1, both sexes, in drinking water, site: liver, lesion: several types, types named in the paper, dosed 104 weeks, study length 104 weeks",negative (inactive)
same,carcinogen call,"mouse, strain Charles River CD1, both sexes, in drinking water, site: lung, lesion: several types, types named in the paper, dosed 104 weeks, study length 104 weeks",negative (inactive)
same,carcinogen call,"rat, strain Long-Evans BLU:(LE), both sexes, in drinking water, site: any site (literature study), lesion: malignant tumor, dosed 149 weeks, study length 149 weeks",negative (inactive)
same,carcinogen call,"rat, strain Long-Evans BLU:(LE), both sexes, in drinking water, site: any site (literature study), lesion: one or several types, types not named, dosed 149 weeks, study length 149 weeks",negative (inactive)
same,carcinogen call,"rat, strain Long-Evans BLU:(LE), both sexes, in drinking water, site: liver, lesion: one or several types, types not named, dosed 149 weeks, study length 149 weeks",negative (inactive)
Clc1cccc(-c2ccc(Cl)c(Cl)c2Cl)c1Cl,TD50,"mouse, strain BALB/cJ, males, in feed, site: liver, lesion: hepatoma, dosed 26 weeks, study length 47 weeks",64.6 mg/kg/day
same,TD50,"mouse, strain BALB/cJ, males, in feed, site: liver, lesion: hepatoma, dosed 47 weeks, study length 47 weeks",9.58 mg/kg/day
same,TD50,"rat, strain Fischer 344, females, in feed, site: liver, lesion: adenoma, NOS, dosed 105 weeks, study length 105 weeks",34.8 mg/kg/day
same,carcinogen call,"rat, strain Fischer 344, females, in feed, site: stomach, lesion: adenocarcinoma, NOS, dosed 105 weeks, study length 105 weeks",a
same,TD50,"rat, strain Fischer 344, males, in feed, site: all sites, lesion: leukemia + lymphoma, dosed 105 weeks, study length 105 weeks",5.94 mg/kg/day
same,TD50,"rat, strain Fischer 344, males, in feed, site: all sites, lesion: leukemia, dosed 105 weeks, study length 105 weeks",6.75 mg/kg/day
same,TD50,"rat, strain Fischer 344, males, in feed, site: any site (literature study), lesion: several types, types named in the paper, dosed 105 weeks, study length 105 weeks",3.23 mg/kg/day
same,TD50,"rat, strain Fischer 344, males, in feed, site: cecum + jejunum + stomach, lesion: adenocarcinoma, NOS, dosed 105 weeks, study length 105 weeks",34.6 mg/kg/day
same,TD50,"rat, strain Fischer 344, males, in feed, site: liver, lesion: adenoma, NOS + hepatocellular carcinoma, dosed 105 weeks, study length 105 weeks",15.1 mg/kg/day
same,TD50,"rat, strain Fischer 344, males, in feed, site: liver, lesion: hepatocellular adenoma + hepatocellular carcinoma + neoplastic nodule, dosed 105 weeks, study length 105 weeks",20.8 mg/kg/day
same,TD50,"rat, strain Sprague-Dawley, females, in feed, site: liver, lesion: cholangioma, dosed 104 weeks, study length 104 weeks",15.3 mg/kg/day
same,TD50,"rat, strain Sprague-Dawley, females, in feed, site: liver, lesion: hepatocellular adenoma, dosed 104 weeks, study length 104 weeks",3.07 mg/kg/day
same,TD50,"rat, strain Sprague-Dawley, females, in feed, site: liver, lesion: hepatocellular carcinoma, dosed 104 weeks, study length 104 weeks",28.6 mg/kg/day
same,TD50,"rat, strain Sprague-Dawley, females, in feed, site: liver, lesion: several types, types named in the paper, dosed 104 weeks, study length 104 weeks",2.82 mg/kg/day
same,TD50,"rat, strain Sprague-Dawley, males, in feed, site: liver, lesion: several types, types named in the paper, dosed 104 weeks, study length 104 weeks",55.1 mg/kg/day
same,TD50,"rat, strain Sprague-Dawley, males, in feed, site: thyroid gland, lesion: follicular-cell adenoma, dosed 104 weeks, study length 104 weeks",20.2 mg/kg/day
same,TD50,"rat, strain Sprague-Dawley, males, in feed, site: thyroid gland, lesion: follicular-cell carcinoma, dosed 104 weeks, study length 104 weeks",89 mg/kg/day
same,TD50,"rat, strain Sprague-Dawley, males, in feed, site: thyroid gland, lesion: several types, types named in the paper, dosed 104 weeks, study length 104 weeks",16.1 mg/kg/day
C[C@@H]1O[C@@H](OC[C@H]2O[C@@H](Oc3c(-c4ccc(O)c(O)c4)oc4cc(O)cc(O)c4c3=O)[C@H](O)[C@@H](O)[C@@H]2O)[C@H](O)[C@H](O)[C@H]1O,TD50,"hamster, strain Syrian Golden, females, in feed, site: adrenal gland, lesion: cortical adenoma, dosed 104 weeks, study length 104 weeks",132000 mg/kg/day (inactive)
same,TD50,"hamster, strain Syrian Golden, females, in feed, site: uterus, lesion: leiomyoma, dosed 104 weeks, study length 104 weeks",140000 mg/kg/day (inactive)
same,carcinogen call,"hamster, strain Syrian Golden, males, in feed, site: adrenal gland, lesion: cortical adenoma, dosed 104 weeks, study length 104 weeks",negative (inactive)
same,carcinogen call,"hamster, strain Syrian Golden, males, in feed, site: forestomach, lesion: papilloma, dosed 104 weeks, study length 104 weeks",negative (inactive)
same,TD50,"rat, strain ACI, females, in feed, site: adrenal gland, lesion: pheochromocytoma, dosed 121 weeks, study length 121 weeks",90400 mg/kg/day (inactive)
same,TD50,"rat, strain ACI, females, in feed, site: heart, lesion: sarcoma, dosed 121 weeks, study length 121 weeks",90400 mg/kg/day (inactive)
same,TD50,"rat, strain ACI, females, in feed, site: pituitary gland, lesion: adenoma, dosed 77 weeks, study length 77 weeks",8910 mg/kg/day (inactive)
same,TD50,"rat, strain ACI, females, in feed, site: urinary bladder, lesion: papilloma, dosed 77 weeks, study length 77 weeks",8910 mg/kg/day (inactive)
same,TD50,"rat, strain ACI, males, in feed, site: adrenal gland, lesion: cortical adenoma, dosed 77 weeks, study length 77 weeks",5710 mg/kg/day (inactive)
same,TD50,"rat, strain ACI, males, in feed, site: colon, lesion: adenoma, dosed 121 weeks, study length 121 weeks",72300 mg/kg/day (inactive)
same,TD50,"rat, strain ACI, males, in feed, site: ileum, lesion: adenoma, dosed 121 weeks, study length 121 weeks",72300 mg/kg/day (inactive)
same,TD50,"rat, strain ACI, males, in feed, site: testis, lesion: interstitial-cell tumor, dosed 77 weeks, study length 77 weeks",3530 mg/kg/day (inactive)
same,TD50,"rat, strain Sprague-Dawley, females, by gavage, site: liver, lesion: hepatocellular carcinoma, dosed 104 weeks, study length 138 weeks",44800 mg/kg/day (inactive)
same,carcinogen call,"rat, strain Sprague-Dawley, males, by gavage, site: liver, lesion: hepatocellular carcinoma, dosed 104 weeks, study length 134 weeks",negative (inactive)
CCc1ccccc1,TD50,"mouse, strain B6C3F1, females, inhaled, site: Harderian gland, lesion: adenoma, dosed 103 weeks, study length 104 weeks",9070 mg/kg/day
same,TD50,"mouse, strain B6C3F1, females, inhaled, site: any site (literature study), lesion: several types, types named in the paper, dosed 103 weeks, study length 104 weeks",4070 mg/kg/day
same,TD50,"mouse, strain B6C3F1, females, inhaled, site: liver, lesion: hepatocellular adenoma + hepatoblastoma + hepatocellular carcinoma, dosed 103 weeks, study length 104 weeks",1880 mg/kg/day
same,TD50,"mouse, strain B6C3F1, females, inhaled, site: liver, lesion: hepatocellular adenoma + hepatocellular carcinoma, dosed 103 weeks, study length 104 weeks",1880 mg/kg/day
same,TD50,"mouse, strain B6C3F1, females, inhaled, site: liver, lesion: hepatocellular adenoma, dosed 103 weeks, study length 104 weeks",2450 mg/kg/day
same,TD50,"mouse, strain B6C3F1, females, inhaled, site: lung, lesion: alveolar/bronchiolar adenoma + alveolar/bronchiolar carcinoma, dosed 103 weeks, study length 104 weeks",7950 mg/kg/day
same,TD50,"mouse, strain B6C3F1, males, inhaled, site: any site (literature study), lesion: several types, types named in the paper, dosed 103 weeks, study length 104 weeks",2010 mg/kg/day
same,TD50,"mouse, strain B6C3F1, males, inhaled, site: liver, lesion: hepatocellular adenoma + hepatoblastoma + hepatocellular carcinoma, dosed 103 weeks, study length 104 weeks",9310 mg/kg/day
same,TD50,"mouse, strain B6C3F1, males, inhaled, site: lung, lesion: alveolar/bronchiolar adenoma + alveolar/bronchiolar carcinoma, dosed 103 weeks, study length 104 weeks",1400 mg/kg/day
same,TD50,"mouse, strain B6C3F1, males, inhaled, site: lung, lesion: alveolar/bronchiolar adenoma, dosed 103 weeks, study length 104 weeks",1680 mg/kg/day
same,TD50,"rat, strain Fischer 344, males, inhaled, site: adrenal medulla, lesion: pheochromocytoma benign, bilateral + pheochromocytoma, benign, dosed 104 weeks, study length 104 weeks",125 mg/kg/day
same,TD50,"rat, strain Fischer 344, males, inhaled, site: adrenal medulla, lesion: pheochromocytoma benign, bilateral + pheochromocytoma, malignant + pheochromocytoma, benign, dosed 104 weeks, study length 104 weeks",106 mg/kg/day
same,TD50,"rat, strain Fischer 344, males, inhaled, site: any site (literature study), lesion: several types, types named in the paper, dosed 104 weeks, study length 104 weeks",53 mg/kg/day
same,TD50,"rat, strain Fischer 344, males, inhaled, site: kidney + testis, lesion: tubule adenoma + tubule carcinoma + interstitial-cell adenoma, bilateral + interstitial-cell adenoma, dosed 104 weeks, study length 104 weeks",24.6 mg/kg/day
same,TD50,"rat, strain Fischer 344, males, inhaled, site: kidney, lesion: tubule adenoma + tubule carcinoma, dosed 104 weeks, study length 104 weeks",147 mg/kg/day and 255 mg/kg/day
same,TD50,"rat, strain Fischer 344, males, inhaled, site: kidney, lesion: tubule adenoma, dosed 104 weeks, study length 104 weeks",232 mg/kg/day and 280 mg/kg/day
same,TD50,"rat, strain Fischer 344, males, inhaled, site: testis, lesion: interstitial-cell adenoma, bilateral + interstitial-cell adenoma, dosed 104 weeks, study length 104 weeks",24.8 mg/kg/day
same,TD50,"rat, strain Fischer 344, males, inhaled, site: testis, lesion: interstitial-cell adenoma, bilateral, dosed 104 weeks, study length 104 weeks",23.1 mg/kg/day
same,TD50,"rat, strain Sprague-Dawley, females, by gavage, site: any site (literature study), lesion: malignant tumor, dosed 104 weeks, study length 123 weeks",1610 mg/kg/day
same,TD50,"rat, strain Sprague-Dawley, females, by gavage, site: any site (literature study), lesion: malignant tumor, dosed 104 weeks, study length 141 weeks",1210 mg/kg/day
same,TD50,"rat, strain Sprague-Dawley, females, by gavage, site: any site (literature study), lesion: several types, types named in the paper, dosed 104 weeks, study length 141 weeks",635 mg/kg/day
same,TD50,"rat, strain Sprague-Dawley, females, by gavage, site: head, lesion: carcinoma, dosed 104 weeks, study length 123 weeks",4170 mg/kg/day
same,TD50,"rat, strain Sprague-Dawley, females, by gavage, site: nasal cavity, lesion: carcinoma, dosed 104 weeks, study length 123 weeks",18300 mg/kg/day
same,TD50,"rat, strain Sprague-Dawley, females, by gavage, site: nasal cavity, lesion: esthesioneuroepithelioma, dosed 104 weeks, study length 123 weeks",18300 mg/kg/day
same,TD50,"rat, strain Sprague-Dawley, females, by gavage, site: oral cavity, lesion: carcinoma, dosed 104 weeks, study length 123 weeks",8890 mg/kg/day
same,TD50,"rat, strain Sprague-Dawley, males, by gavage, site: any site (literature study), lesion: malignant tumor, dosed 104 weeks, study length 141 weeks",1980 mg/kg/day
same,TD50,"rat, strain Sprague-Dawley, males, by gavage, site: any site (literature study), lesion: several types, types named in the paper, dosed 104 weeks, study length 141 weeks",1160 mg/kg/day
same,TD50,"rat, strain Sprague-Dawley, males, by gavage, site: ear duct, lesion: carcinoma, dosed 104 weeks, study length 123 weeks",18300 mg/kg/day
same,TD50,"rat, strain Sprague-Dawley, males, by gavage, site: head, lesion: carcinoma, dosed 104 weeks, study length 123 weeks",4350 mg/kg/day
same,TD50,"rat, strain Sprague-Dawley, males, by gavage, site: nasal cavity, lesion: esthesioneuroepithelioma, dosed 104 weeks, study length 123 weeks",5990 mg/kg/day
same,TD50,"rat, strain Sprague-Dawley, males, by gavage, site: oral cavity, lesion: carcinoma, dosed 104 weeks, study length 123 weeks",18300 mg/kg/day
